Test results as given in patent publication US7465736B2, “Azole methylidene cyanide derivatives and their use as protein kinase modulators” (Laboratoires Serono S.A., priority 2002, dated 2008).

What was measured:
rat JNK3 = rat JNK3 (Rattus norvegicus, UniProt P49187); experiment: JNK3 in vitro assay (33P incorporation into biotinylated GST-c-Jun, SPA beads); type: biochemical; conditions: in vitro potency on rat JNK3
Procedure: The compounds of the present invention are inhibitors of JNKs. The phosphorylation of c-jun by JNK2 or JNK3 may be determined by monitoring the incorporation of ^33P into c-jun following the protocol below. The inhibitory activity of the compounds according to formula I, towards c-jun phosphorylation through JNK, is determined by calculating phosphorylation activity in the presence or absence of compounds according to formula I.
JNK3 and/or -2 assays are performed in 96 well MTT plates: incubation of 0.5 μg of recombinant, pre-activated GST-JNK3 or GST-JNK2 with 1 μg of recombinant, biotinylated GST-c-Jun and 2 μM ^33γ-ATP (2 nCi/μl), in the presence or absence of compounds according to formula I and in a reaction volume of 50 μl containing 50 mM Tris-HCl, pH 8.0; 10 mM MgCl2; 1 mM Dithiothreitol, and 100 μM NaVO4. The test compound according to formula I is used in concentrations of 10, 3, 033, 0.1, 0.033, 0.01, 0.0033, 0.001 μM. The incubation is performed for 120 min. at R.T and stopped upon addition of 200 μl of a solution containing 250 μg of Streptavidine-coated SPA beads (Amersham, Inc.)*, 5 mM EDTA, 0.1% Triton X-100 and 50 μM ATP, in phosphate saline buffer.
After incubation for 60 minutes at RT, beads are sedimented by centrifugation at 1500×g for 5 minutes, resuspended in 200 μl of PBS containing 5 mM EDTA, 0.1% Triton X-100 and 50 μM ATP and the radioactivity measured in a scintillation β counter, following sedimentation of the beads as described above.

human GSK3 β = human GSK3 β (Homo sapiens, UniProt P49841); experiment: GSK3β in vitro assay (33P incorporation into phospho GS2 peptide, scintillation counting); type: biochemical; conditions: in vitro potency on human GSK3 β
human GSK3 β, sequence (P49841 whole entry): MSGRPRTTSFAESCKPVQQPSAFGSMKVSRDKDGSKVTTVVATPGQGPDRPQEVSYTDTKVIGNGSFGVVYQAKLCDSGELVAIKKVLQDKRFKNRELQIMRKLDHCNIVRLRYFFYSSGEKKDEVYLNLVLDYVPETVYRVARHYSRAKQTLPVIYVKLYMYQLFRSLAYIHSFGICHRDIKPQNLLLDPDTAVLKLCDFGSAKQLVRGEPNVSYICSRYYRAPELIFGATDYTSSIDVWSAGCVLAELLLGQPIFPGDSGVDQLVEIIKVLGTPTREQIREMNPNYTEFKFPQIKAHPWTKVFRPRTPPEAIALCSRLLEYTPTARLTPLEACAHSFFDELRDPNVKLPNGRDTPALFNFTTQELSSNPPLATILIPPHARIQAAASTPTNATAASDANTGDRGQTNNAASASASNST
Procedure: GSK3β Assay (see Naerum et al., Bioorg. Med. Chem. Lett 12 p. 1525-1528 (2002))
In a final reaction volume of 25 μl, the protein kinase GSK3β (h) (5-10 mU) is incubated with 8 mM MOPS at a pH of 7.0, in 0.2 mM EDTA, as well as 20 μM of the peptide […](p)EDEEE (SEQ ID NO: 1; a phosphor GS2 peptide being the GSK3 substrate in this assay), 10 mM Mg Acetate and [γ-^33P-ATP] (Specific activity approx. 500 cpm/pmol, concentration as required). The reaction is initiated by the addition of Mg^2+[γ-^33P-ATP]. The test compound according to formula I is used in concentrations of 100, 25, 5, 1.25, 0.315, 0.078, 0.0195, 0.0049, 0.0012, 0.00031 μM. After incubations for 40 minutes at room temperature, the reaction is stopped by the addition of 5 μl of a 3% phosphoric acid solution. 10 μl of the reaction is then spotted onto a P30 filtermat and washed three times for 5 minutes in 50 mM phosphoric acid and once in methanol prior to drying and the degree of phosphorylation of the substrate is determined by scintillation counting.

rat JNK3, sequence (P49187 whole entry): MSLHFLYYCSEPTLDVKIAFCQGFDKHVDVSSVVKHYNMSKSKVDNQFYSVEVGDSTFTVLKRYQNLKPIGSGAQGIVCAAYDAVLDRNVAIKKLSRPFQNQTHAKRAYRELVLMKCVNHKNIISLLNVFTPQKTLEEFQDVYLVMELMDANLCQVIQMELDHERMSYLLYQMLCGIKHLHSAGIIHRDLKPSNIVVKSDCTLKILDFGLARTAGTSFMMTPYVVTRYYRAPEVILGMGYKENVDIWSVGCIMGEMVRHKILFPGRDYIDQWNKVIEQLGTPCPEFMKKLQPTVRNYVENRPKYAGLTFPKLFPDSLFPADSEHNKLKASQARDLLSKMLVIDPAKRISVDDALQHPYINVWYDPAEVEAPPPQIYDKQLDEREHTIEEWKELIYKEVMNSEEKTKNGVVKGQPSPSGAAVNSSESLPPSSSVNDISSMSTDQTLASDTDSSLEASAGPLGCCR

SMILES | IC50 (rat JNK3) | IC50 (human GSK3 β)
CCC1=CS/C(=C(/C#N)c2ccnc(NC3CCN(S(C)(=O)=O)CC3)n2)N1 | < 10 µM | –
N#C/C(=C1\NC(C(=O)O)=CS1)c1ccnc(NCCCN2CCCC2=O)n1 [2-[cyano(2-{[3-(2-oxopyrrolidin-1-yl)propyl]amino}pyrimidin-4-yl)methylene]-2,3-dihydro-1,3-thiazole-4-carboxylic acid] | < 10 µM | < 10 µM
CCC1=CS/C(=C(/C#N)c2ccnc(NCCc3ccc(S(N)(=O)=O)cc3)n2)N1 [4-[2-({4-[cyano(4-ethyl-1,3-thiazol-2(3H)-ylidene)methyl]pyrimidin-2-yl}amino)ethyl]benzenesulfonamide] | < 10 µM | < 10 µM
N#C/C(=C1\NC(c2ccccc2)=CS1)c1ccnc(NCCNc2ccc(C#N)cn2)n1 [6-{[2-({4-[cyano(4-phenyl-1,3-thiazol-2(3H)-ylidene)methyl]pyrimidin-2-yl}amino)ethyl]amino}nicotinonitrile] | < 10 µM | –
CC1=CS/C(=C(/C#N)c2ccnc(N3CCC(Nc4ncccn4)CC3)n2)N1 [(4-methyl-1,3-thiazol-2(3H)-ylidene){2-[4-(pyrimidin-2-ylamino)piperidin-1-yl]pyrimidin-4-yl}acetonitrile] | – | < 10 µM
N#C/C(=C1\NC(c2ccccc2Cl)=CS1)c1ccnc(NC2CC2)n1 [[4-(2-chlorophenyl)-1,3-thiazol-2(3H)-ylidene][2-(cyclopropylamino)pyrimidin-4-yl]acetonitrile] | – | < 10 µM
CN(C)c1nc(/C(C#N)=C2/NC(c3ccccc3)=CS2)nc(N2CCCC3CCCCC32)n1 (centres unmarked) [[4-(dimethylamino)-6-(octahydroquinolin-1(2H)-yl)-1,3,5-triazin-2-yl](4-phenyl-1,3-thiazol-2(3H)-ylidene)acetonitrile] | – | < 10 µM
CC1=CS/C(=C(/C#N)c2cc(NCc3ccco3)ncn2)N1 [{6-[(2-furylmethyl)amino]pyrimidin-4-yl}(4-methyl-1,3-thiazol-2(3H)-ylidene)acetonitrile] | – | < 10 µM
CC1=CS/C(=C(/C#N)c2cc(N(C)c3ccccc3)nc(NCCc3cccnc3)n2)N1 [{6-[methyl(phenyl)amino]-2-[(2-pyridin-3-ylethyl)amino]pyrimidin-4-yl}(4-methyl-1,3-thiazol-2(3H)-ylidene)acetonitrile] | – | < 10 µM
